We go through two molecules from ChEMBL document CHEMBL4825762, “Identification, Synthesis, and Characterization of a Major Circulating Human Metabolite of TRPV4 Antagonist GSK2798745” (ACS Med Chem Lett, 2021).

SMILES strings stand for the structures. Activity calls are given as the source filed them. No cut-off for these calls is given here.

In series [1] the target is Transient receptor potential cation channel subfamily M member 2 (Homo sapiens) (UniProt O94759). The experiment in a line: Antagonist activity at human TRPM2 at <= 30 uM. To be noted: dose microM <=30.
The target of series [2] is Transient receptor potential cation channel subfamily A member 1 (Homo sapiens) (UniProt O75762). The experiment in a line: Antagonist activity at human TRPA1 at <= 30 uM. To be noted: dose microM <=30.
Series [3] in a line: Chromatographic hydrophobicity index, log D of the compound. The format is physicochemical.
Series [4] addresses Transient receptor potential cation channel subfamily M member 4 (Homo sapiens) (UniProt Q8TD43). Nature of the series: Antagonist activity at human TRPM4 at <= 30 uM. To be noted: dose microM <=30.
Series [5] concerns the target Transient receptor potential cation channel subfamily M member 8 (Homo sapiens) (UniProt Q7Z2W7). Nature of the series: Antagonist activity at human TRPM8 at <= 30 uM. To be noted: dose microM <=30.
In series [6] the target is T1, Short transient receptor potential channel 4 (Homo sapiens) (UniProt Q9UBN4).
T1 sequence (whole entry): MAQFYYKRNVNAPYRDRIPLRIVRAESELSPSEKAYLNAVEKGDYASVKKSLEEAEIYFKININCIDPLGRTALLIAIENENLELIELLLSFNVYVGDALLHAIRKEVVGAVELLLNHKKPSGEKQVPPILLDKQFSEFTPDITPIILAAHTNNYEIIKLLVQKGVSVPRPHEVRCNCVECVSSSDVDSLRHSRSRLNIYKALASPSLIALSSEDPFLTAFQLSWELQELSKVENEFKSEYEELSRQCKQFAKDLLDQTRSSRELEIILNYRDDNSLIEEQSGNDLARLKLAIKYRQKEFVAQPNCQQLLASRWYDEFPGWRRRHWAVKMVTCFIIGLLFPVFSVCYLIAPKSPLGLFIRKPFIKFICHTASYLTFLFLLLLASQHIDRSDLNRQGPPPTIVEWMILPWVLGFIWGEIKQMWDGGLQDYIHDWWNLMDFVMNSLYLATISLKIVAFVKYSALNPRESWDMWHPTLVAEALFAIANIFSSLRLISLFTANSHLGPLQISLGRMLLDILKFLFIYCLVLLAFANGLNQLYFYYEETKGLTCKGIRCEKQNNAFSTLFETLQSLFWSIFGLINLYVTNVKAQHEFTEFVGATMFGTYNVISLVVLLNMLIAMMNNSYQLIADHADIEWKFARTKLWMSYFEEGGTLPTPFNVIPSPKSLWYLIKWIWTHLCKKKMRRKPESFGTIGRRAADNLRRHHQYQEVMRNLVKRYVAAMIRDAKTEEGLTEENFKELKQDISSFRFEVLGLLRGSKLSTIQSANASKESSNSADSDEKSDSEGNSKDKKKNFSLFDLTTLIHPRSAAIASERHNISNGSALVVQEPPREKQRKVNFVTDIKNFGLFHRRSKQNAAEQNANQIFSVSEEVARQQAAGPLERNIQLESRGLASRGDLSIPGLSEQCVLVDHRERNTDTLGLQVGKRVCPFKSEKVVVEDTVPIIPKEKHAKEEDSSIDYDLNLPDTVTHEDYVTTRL
Nature of the series: Antagonist activity at human TRPC4 at <= 30 uM. To be noted: dose microM <=30.

A short description of series [7]: Permeability of the compound. To be noted: not told; read-out: permeability. Type of series: ADME.
In series [8] the target is T2, Short transient receptor potential channel 5 (Homo sapiens) (UniProt Q9UL62).
T2 sequence (whole entry): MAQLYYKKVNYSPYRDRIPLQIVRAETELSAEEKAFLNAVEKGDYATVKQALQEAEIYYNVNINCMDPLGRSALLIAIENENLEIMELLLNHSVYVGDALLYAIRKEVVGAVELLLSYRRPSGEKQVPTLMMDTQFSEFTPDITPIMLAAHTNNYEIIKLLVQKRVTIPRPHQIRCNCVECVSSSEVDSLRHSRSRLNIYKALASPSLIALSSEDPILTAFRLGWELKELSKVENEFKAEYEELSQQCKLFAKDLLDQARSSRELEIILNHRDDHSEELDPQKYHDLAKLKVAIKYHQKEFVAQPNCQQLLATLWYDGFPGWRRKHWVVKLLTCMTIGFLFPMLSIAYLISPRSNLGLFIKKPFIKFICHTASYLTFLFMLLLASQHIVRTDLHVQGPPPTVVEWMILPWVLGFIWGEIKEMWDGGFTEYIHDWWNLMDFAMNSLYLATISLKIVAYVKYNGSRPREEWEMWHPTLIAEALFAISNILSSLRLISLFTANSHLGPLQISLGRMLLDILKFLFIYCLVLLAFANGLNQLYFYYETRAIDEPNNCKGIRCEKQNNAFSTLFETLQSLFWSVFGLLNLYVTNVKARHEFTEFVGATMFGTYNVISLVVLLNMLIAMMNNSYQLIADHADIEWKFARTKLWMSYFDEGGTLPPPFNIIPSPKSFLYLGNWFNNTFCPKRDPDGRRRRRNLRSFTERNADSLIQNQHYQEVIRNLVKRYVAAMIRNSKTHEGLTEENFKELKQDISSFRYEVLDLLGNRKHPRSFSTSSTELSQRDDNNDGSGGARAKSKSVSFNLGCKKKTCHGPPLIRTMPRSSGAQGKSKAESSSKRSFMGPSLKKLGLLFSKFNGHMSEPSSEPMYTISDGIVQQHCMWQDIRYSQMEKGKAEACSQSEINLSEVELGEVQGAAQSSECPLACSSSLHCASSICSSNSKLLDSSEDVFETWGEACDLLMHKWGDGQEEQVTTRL
The experiment in a line: Antagonist activity at human TRPC5 at <= 30 uM. To be noted: dose microM <=30.

The target of series [9] is Transient receptor potential cation channel subfamily V member 1 (Homo sapiens) (UniProt Q8NER1). The experiment in a line: Antagonist activity at human TRPV1 at <= 30 uM. To be noted: dose microM <=30.
The target of series [10] is T3, Short transient receptor potential channel 3 (Homo sapiens) (UniProt Q13507).
T3 sequence (whole entry): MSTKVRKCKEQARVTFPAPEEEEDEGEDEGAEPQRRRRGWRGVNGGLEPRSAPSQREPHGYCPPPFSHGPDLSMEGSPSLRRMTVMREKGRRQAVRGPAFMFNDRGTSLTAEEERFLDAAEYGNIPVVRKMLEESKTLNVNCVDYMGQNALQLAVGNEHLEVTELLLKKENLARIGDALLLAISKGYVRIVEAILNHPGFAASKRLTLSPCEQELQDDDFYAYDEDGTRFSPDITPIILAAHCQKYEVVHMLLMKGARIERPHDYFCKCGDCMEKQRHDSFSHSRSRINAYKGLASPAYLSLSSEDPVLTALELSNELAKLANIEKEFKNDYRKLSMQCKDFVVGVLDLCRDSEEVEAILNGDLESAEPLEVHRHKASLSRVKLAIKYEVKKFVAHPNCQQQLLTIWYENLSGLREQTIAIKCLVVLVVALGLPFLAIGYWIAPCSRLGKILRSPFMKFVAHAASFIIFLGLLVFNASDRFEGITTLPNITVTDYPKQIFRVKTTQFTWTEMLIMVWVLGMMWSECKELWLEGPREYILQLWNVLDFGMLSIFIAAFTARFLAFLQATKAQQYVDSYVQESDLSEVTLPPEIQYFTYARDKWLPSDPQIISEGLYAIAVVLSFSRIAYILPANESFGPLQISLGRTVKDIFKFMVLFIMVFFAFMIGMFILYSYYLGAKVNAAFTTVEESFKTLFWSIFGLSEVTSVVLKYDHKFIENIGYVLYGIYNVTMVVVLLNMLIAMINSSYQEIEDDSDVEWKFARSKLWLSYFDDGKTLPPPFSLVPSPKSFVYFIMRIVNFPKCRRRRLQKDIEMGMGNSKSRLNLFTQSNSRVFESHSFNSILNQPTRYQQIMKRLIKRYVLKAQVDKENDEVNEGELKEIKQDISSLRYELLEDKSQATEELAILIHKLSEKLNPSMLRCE
The experiment in a line: Antagonist activity at human TRPC3 at <= 30 uM. To be noted: dose microM <=30.

For series [11], the target named is T4, Short transient receptor potential channel 6 (Homo sapiens) (UniProt Q9Y210).
T4 sequence (whole entry): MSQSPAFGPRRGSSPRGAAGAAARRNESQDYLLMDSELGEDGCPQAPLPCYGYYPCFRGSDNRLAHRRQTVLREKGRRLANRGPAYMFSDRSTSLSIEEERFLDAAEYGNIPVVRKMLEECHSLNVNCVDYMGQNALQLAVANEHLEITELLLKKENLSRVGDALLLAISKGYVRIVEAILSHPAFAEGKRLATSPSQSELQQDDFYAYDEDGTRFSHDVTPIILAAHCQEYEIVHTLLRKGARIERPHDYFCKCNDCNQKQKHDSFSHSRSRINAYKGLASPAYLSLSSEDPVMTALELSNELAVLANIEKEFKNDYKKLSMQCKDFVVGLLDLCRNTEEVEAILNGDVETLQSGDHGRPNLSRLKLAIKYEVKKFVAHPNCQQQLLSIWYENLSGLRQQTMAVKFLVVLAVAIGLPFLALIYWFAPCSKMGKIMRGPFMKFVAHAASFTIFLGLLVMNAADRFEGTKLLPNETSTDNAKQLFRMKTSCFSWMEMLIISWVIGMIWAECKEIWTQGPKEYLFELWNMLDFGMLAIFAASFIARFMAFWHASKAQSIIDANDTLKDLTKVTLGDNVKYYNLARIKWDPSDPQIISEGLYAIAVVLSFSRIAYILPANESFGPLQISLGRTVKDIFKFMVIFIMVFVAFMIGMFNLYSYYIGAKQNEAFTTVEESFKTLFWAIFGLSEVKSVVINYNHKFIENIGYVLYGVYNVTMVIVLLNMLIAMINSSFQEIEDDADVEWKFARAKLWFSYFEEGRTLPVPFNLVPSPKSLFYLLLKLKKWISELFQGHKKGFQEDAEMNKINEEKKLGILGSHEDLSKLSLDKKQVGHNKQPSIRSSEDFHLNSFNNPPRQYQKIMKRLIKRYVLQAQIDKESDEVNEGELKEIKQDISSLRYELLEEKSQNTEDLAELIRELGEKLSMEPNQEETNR
Nature of the series: Antagonist activity at human TRPC6 at <= 30 uM. To be noted: dose microM <=30.

Series [12] has as its target Voltage-gated inwardly rectifying potassium channel KCNH2 (Homo sapiens, UniProt Q12809). The experiment in a line: Inhibition of human ERG at <= 10 uM.
The next series deals with Cytochrome P450 3A4 (Homo sapiens, UniProt P08684). Nature of the series: Inhibition of CYP3A4 (unknown origin) at <= 10 uM. The format is ADME.
For series [13], the target named is Transient receptor potential cation channel subfamily V member 4 (Homo sapiens, UniProt Q9HBA0). The experiment in a line: Antagonist activity at human TRPV4.
Transient receptor potential cation channel subfamily V member 4, sequence (Q9HBA0 whole entry): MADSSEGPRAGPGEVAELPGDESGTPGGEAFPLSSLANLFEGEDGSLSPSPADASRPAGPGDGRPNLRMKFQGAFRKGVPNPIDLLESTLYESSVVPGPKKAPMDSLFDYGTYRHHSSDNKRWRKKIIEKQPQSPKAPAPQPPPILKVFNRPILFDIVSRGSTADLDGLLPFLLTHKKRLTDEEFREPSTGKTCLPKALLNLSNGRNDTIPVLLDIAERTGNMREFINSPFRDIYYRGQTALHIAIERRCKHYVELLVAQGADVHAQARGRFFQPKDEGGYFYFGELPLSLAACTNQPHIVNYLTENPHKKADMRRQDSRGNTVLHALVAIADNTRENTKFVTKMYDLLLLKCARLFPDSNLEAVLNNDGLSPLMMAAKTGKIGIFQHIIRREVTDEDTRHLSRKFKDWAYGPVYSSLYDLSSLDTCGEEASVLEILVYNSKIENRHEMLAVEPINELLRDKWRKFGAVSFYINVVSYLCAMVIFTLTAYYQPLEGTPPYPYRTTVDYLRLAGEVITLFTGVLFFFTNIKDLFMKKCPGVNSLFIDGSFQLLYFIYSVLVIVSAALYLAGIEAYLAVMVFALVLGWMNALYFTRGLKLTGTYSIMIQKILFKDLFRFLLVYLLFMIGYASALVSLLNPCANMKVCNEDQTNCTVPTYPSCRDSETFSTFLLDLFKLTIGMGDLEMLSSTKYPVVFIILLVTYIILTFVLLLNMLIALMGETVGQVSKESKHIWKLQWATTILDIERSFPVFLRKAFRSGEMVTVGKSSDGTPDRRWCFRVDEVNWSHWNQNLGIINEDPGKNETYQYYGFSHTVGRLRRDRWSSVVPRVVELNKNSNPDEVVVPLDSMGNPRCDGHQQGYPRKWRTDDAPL

Transient receptor potential cation channel subfamily M member 4 (Homo sapiens), sequence (Q8TD43 whole entry): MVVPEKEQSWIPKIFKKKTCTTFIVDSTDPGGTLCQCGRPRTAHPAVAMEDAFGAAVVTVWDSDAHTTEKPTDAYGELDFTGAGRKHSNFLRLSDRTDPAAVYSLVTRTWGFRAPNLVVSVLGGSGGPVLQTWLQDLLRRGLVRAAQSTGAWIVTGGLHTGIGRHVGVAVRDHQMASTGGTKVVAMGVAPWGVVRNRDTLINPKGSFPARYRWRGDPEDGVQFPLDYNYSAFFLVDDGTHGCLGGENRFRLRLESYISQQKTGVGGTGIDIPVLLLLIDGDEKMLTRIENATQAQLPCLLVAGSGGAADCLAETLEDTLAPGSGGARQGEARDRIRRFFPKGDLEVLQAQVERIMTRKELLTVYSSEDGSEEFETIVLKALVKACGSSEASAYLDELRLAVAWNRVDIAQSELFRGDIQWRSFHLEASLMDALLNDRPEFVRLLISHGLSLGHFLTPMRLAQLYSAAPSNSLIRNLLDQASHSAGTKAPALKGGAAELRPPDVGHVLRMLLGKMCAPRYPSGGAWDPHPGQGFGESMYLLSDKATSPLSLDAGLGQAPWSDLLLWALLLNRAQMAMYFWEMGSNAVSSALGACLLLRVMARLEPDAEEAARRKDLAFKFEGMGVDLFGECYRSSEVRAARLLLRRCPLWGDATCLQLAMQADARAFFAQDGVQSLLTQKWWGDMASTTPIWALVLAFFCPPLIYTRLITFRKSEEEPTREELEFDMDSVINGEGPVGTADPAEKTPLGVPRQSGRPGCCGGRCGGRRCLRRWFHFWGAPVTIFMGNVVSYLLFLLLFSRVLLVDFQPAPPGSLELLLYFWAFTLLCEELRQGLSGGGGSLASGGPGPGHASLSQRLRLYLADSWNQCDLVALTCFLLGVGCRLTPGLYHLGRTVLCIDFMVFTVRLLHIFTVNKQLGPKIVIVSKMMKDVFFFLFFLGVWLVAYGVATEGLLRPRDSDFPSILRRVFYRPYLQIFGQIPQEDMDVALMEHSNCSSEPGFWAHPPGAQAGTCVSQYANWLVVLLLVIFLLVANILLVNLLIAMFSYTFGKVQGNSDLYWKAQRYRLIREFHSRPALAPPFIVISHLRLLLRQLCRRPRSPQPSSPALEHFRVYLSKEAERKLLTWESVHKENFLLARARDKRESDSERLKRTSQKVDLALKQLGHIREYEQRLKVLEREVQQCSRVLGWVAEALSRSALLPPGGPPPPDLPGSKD
Transient receptor potential cation channel subfamily V member 1 (Homo sapiens), sequence (Q8NER1 whole entry): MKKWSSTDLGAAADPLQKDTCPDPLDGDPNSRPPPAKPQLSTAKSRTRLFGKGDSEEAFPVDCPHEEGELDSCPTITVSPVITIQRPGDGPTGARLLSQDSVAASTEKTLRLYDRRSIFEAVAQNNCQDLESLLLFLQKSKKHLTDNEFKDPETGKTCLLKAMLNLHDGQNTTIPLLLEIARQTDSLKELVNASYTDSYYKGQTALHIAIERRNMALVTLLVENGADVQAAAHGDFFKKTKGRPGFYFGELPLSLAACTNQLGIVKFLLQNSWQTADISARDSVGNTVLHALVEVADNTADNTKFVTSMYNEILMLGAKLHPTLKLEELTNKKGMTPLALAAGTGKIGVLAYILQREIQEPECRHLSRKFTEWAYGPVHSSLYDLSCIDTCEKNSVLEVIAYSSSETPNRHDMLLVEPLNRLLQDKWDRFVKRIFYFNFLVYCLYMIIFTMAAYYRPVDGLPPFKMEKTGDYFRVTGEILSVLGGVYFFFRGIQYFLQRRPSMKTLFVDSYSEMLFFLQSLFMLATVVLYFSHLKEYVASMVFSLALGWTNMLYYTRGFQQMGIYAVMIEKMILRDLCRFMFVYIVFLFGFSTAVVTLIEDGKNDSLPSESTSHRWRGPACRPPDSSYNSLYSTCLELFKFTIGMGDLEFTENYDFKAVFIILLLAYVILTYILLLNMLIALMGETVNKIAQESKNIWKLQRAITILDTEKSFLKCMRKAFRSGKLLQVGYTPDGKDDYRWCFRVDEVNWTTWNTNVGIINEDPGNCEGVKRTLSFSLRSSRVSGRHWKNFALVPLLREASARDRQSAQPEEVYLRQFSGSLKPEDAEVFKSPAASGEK
Transient receptor potential cation channel subfamily M member 8 (Homo sapiens), sequence (Q7Z2W7 whole entry, looked up): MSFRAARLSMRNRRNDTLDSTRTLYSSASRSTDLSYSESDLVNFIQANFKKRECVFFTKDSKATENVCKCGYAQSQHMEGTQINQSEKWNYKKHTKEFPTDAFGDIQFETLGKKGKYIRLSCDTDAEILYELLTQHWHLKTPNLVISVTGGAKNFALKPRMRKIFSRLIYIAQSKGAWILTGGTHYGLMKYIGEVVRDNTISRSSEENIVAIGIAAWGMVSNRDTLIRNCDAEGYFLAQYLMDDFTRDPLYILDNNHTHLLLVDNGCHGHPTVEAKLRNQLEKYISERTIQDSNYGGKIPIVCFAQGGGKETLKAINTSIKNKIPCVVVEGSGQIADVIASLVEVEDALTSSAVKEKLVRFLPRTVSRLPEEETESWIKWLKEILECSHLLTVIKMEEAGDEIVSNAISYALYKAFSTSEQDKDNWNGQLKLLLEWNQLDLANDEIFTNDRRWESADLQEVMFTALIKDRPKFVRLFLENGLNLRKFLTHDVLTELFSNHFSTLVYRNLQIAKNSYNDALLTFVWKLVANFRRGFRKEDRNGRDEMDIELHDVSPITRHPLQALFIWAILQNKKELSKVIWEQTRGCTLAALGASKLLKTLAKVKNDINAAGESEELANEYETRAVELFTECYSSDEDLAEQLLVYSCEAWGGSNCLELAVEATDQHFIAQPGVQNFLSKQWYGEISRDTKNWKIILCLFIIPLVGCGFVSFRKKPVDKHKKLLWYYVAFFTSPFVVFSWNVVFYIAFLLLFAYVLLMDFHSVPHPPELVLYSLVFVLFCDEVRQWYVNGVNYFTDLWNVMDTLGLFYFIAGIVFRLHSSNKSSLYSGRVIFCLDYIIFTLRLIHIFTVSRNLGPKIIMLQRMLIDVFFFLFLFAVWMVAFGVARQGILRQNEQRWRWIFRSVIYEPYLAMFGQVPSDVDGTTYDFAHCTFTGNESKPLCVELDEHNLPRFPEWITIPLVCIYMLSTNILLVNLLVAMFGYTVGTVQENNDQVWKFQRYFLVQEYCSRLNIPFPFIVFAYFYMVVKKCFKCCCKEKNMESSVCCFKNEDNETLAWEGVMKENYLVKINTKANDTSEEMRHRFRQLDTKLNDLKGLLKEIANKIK
Cytochrome P450 3A4, sequence (P08684 whole entry): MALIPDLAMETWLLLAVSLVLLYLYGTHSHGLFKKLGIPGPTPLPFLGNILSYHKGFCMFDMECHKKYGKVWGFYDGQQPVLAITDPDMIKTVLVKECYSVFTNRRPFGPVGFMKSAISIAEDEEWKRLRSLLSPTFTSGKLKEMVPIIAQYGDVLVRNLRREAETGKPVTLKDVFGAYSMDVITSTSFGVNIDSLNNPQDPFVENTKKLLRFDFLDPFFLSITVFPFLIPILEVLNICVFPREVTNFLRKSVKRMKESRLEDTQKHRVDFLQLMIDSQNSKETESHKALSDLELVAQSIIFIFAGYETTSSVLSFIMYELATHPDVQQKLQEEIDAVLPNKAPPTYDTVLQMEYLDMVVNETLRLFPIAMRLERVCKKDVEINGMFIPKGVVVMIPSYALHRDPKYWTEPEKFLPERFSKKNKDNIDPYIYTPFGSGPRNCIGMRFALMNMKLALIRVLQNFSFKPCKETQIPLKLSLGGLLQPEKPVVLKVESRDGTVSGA

Turning to `CC(C)(O)c1cnc(N2C[C@@]3(CC[C@@H](O)[C@](C)(Cn4cnc5ccc(C#N)cc54)C3)OC2=O)cn1`, the outcome in series [1], in series [2], in series [4], in [5], in series [6] and in series [8] was inactive. Further, the result in series [9], in series [10] and in [11] was inactive. In addition, the chromatographic logD in [3] is 2.6. Moreover, the Papp in series [7] was 32 nm/s. Further, the “inhibition (INH)” value (in [12]; against Cytochrome P450 3A4) was “Not Active” throughout. This molecule registered an IC50 in series [13] of 0.056 µM.

Turning to `CC(C)(O)c1cnc(N2C[C@@]3(CCC[C@](C)(Cn4cnc5ccc(C#N)cc54)C3)OC2=O)cn1` [GSK2798745], the chromatographic logD in series [3] came to 4. For the same molecule, in series [7], the Papp worked out at 385 nm/s. The same molecule had an IC50 in series [13] of 0.002 µM.

For orientation: chromatographic logD means lipophilicity estimated from chromatographic retention. Lower therefore signals a more hydrophilic compound. The term IC50 denotes the concentration needed to halve the response being measured. Low values mean greater potency, high ones weaker potency.
